Data from US10088490B2, “Assay for analytes using multiple receptors” (Siemens Healthcare Diagnostics Inc., priority 2010, dated 2018).

Columns and labels:
Type in all cases: binding
[1] = tested on: Antibody A specific for cortisol (clone 16DC/17.7, IgG1κ); assay: LOCI competitive cortisol immunoassay, cross-reactivity screening with Biotinylated Antibody A Reagent; settings: 100% A Biotinylated Antibody; steroid-stripped serum with cortisol (5 ng/dL)
Procedure: (§1) The antibodies were subjected to analytical size exclusion chromatography prior to any manipulations.
(§2) NHS-PEO4-Biotin was dissolved fresh at 10 mg/mL in Antibody Dialysis Buffer. […] The mixture was rocked at 25° C. for exactly 3 hours. A 200 mM solution of glycine was prepared by dissolving 750 mg glycine in Antibody Dialysis Buffer to a total volume of 50 mL. At the end of the 3-hour biotinylation reaction, 1.52 mL of the 200 mM glycine solution was added to the reaction mixture. The quenched reaction mixture was rocked an additional 60 minutes at 25° C.
(§3) The biotinylated antibody was then purified using preparatory HPLC using Antibody Dialysis Buffer as the mobile phase. […] This reagent was designated as the Biotinylated Antibody Reagent.
(§4) The assay used for screening purposes was conducted on the DIMENSION® VISTA® instrument (system) (Siemens Healthcare Diagnostics Inc., Newark Del.). Initially, 20 μL Biotinylated Antibody Reagent with 15 μL system water was added to the vessel. After 22 seconds, 15 μL sample with 15 μL system water were added to the vessel. After almost 4 minutes, 20 μL Chemibead Reagent with 15 μL system water were added to the vessel. Approximately 7 minutes later, 20 μL Sensibead Reagent with 135 μL system water was added to the vessel. The LOCI® read was taken after approximately 5 minutes. The assay from the first reagent addition to the final read took approximately 16 minutes. The contents of the vessel when the final read is taken were as follows: 2 ng/mL Biotinylated Antibody Reagent, 4 μg/mL Chemibead Reagent, 56 μg/mL Sensibead Reagent, and […] sample. The assay is a competitive format, which means that the greater the concentration of analyte in the sample, the smaller is the signal generation. This is because a detectable complex is formed by the Biotinylated Antibody Reagent, Chemibead Reagent, and Sensibead Reagent in the absence of analyte. The presence of analyte decreases the proportion of Biotinylated Antibody Reagent that is free to form detectable complexes.
(§5) Initial testing used Biotinylated Antibody A Reagent with the other reagents and the methodology described above to analyze the steroid-stripped serum with cortisol. The panel of 34 cross-reactants were individually added to the steroid-stripped serum with a defined concentration of cortisol (5 ng/dL) and assayed. Cross-reactivity data were calculated as follows:
(§6) [formula] The same testing was performed using Biotinylated Antibody L Reagent. The compilation of the percent cross-reactivities for the 34 compounds is referred to as the cross-reactivity profile. The apparent cortisol concentration is the cortisol value obtained when testing a sample containing cortisol and the interfering substance by the above test method that also detects the interfering substance to some degree.

[2] = tested on: Antibody L specific for cortisol (clone XM210, IgG2a); assay: LOCI competitive cortisol immunoassay, cross-reactivity screening with Biotinylated Antibody L Reagent; settings: 100% L Biotinylated Antibody; steroid-stripped serum with cortisol (5 ng/dL)
Procedure: as §1, §2, §3, §4, §5, §6

[3] = tested on: mixture of Biotinylated Antibody A Reagent and Biotinylated Antibody L Reagent; assay: LOCI competitive cortisol immunoassay, cross-reactivity with mixtures of Biotinylated Antibody A and L Reagents; settings: steroid-stripped serum with cortisol
Procedure: as §4, §5, §6
A further study was performed by mixing Biotinylated Antibody A Reagent with Biotinylated Antibody L Reagent in a 50:50 mixture; 80% Biotinylated Antibody A Reagent: 20% Biotinylated Antibody L Reagent; 75% Biotinylated Antibody A Reagent: 25% Biotinylated Antibody L Reagent; and 70% Biotinylated Antibody A Reagent: 30% Biotinylated Antibody L Reagent. […] These reagents were used to test cross-reactivity in stripped serum with cortisol.

[4] = 70% A 30% L Biotinylated Antibody
[5] = 75% A 25% L Biotinylated Antibody
[6] = 80% A 20% L Biotinylated Antibody

## C[C@]12CCC(=O)C=C1CC[C@@H]1[C@@H]2[C@@H](O)C[C@@]2(C)[C@H]1CC[C@]2(O)[C@@H](O)CO [20α-dihydrocortisol]
[1]
  percent cross reactivity: 0.4%
[2]
  percent cross reactivity: 0.9%
[3]; [4]
  percent cross reactivity: 0.7%
[3]; [5]
  percent cross reactivity: 0.6%
[3]; [6]
  percent cross reactivity: 0.6%

## C[C@]12CC[C@@H](O)C[C@H]1CC[C@@H]1[C@@H]2[C@@H](O)C[C@@]2(C)[C@H]1CC[C@]2(O)C(=O)CO [tetrahydrocortisol]
[1]
  percent cross reactivity: 0.0%
[2]
  percent cross reactivity: 0.1%
[3]; [4]
  percent cross reactivity: 0.1%
[3]; [5]
  percent cross reactivity: 0.1%
[3]; [6]
  percent cross reactivity: 0.0%

## CC(=O)OCC(=O)[C@@]1(O)CC[C@H]2[C@@H]3CCC4=CC(=O)CC[C@]4(C)[C@@]3(F)[C@@H](O)C[C@@]21C [fluorocortisone acetate]
[1]
  percent cross reactivity: 35.3%
[2]
  percent cross reactivity: 69.3%
[3]; [4]
  percent cross reactivity: 27.8%
[3]; [5]
  percent cross reactivity: 20.9%
[3]; [6]
  percent cross reactivity: 17.0%

## C[C@]12CCC(=O)C[C@H]1CC[C@@H]1[C@@H]2[C@@H](O)C[C@@]2(C)[C@H]1CC[C@]2(O)C(=O)CO [5β-dihydrocortisol]
[1]
  percent cross reactivity: 0.4%
[2]
  percent cross reactivity: 1.3%
[3]; [4]
  percent cross reactivity: 1.0%
[3]; [5]
  percent cross reactivity: 0.9%
[3]; [6]
  percent cross reactivity: 0.8%

## C[C@]12CCC(=O)C=C1CC[C@@H]1[C@@H]2CC[C@@]2(C)[C@H]1CC[C@]2(O)C(=O)CO [11-deoxycortisol]
[1]
  percent cross reactivity: 39.8%
[2]
  percent cross reactivity: 1.7%
[3]; [4]
  percent cross reactivity: 3.0%
[3]; [5]
  percent cross reactivity: 3.2%
[3]; [6]
  percent cross reactivity: 3.7%

## C[C@]12CCC(=O)C=C1CC[C@@H]1[C@@H]2[C@@H](O)C[C@@]2(C)[C@H]1CC[C@]2(O)C(=O)COS(=O)(=O)O [sulphate 21-cortisol]
[1]
  percent cross reactivity: 22.5%
[2]
  percent cross reactivity: 0.2%
[3]; [4]
  percent cross reactivity: 0.6%
[3]; [5]
  percent cross reactivity: 0.7%
[3]; [6]
  percent cross reactivity: 0.9%

## C[C@]12CC[C@@H](O)C[C@@H]1CC[C@@H]1[C@@H]2[C@@H](O)C[C@@]2(C)[C@H]1CC[C@]2(O)C(=O)CO [allotetrahydrocortisol]
[1]
  percent cross reactivity: 4.7%
[2]
  percent cross reactivity: 8.1%
[3]; [4]
  percent cross reactivity: 7.1%
[3]; [5]
  percent cross reactivity: 6.5%
[3]; [6]
  percent cross reactivity: 6.0%

## C[C@]12CC[C@@H](O)C[C@H]1CC[C@@H]1[C@@H]2CC[C@@]2(C)[C@H]1CC[C@]2(O)C(=O)CO [tetrahydro-11-deoxycortisol]
[1]
  percent cross reactivity: 0.3%
[2]
  percent cross reactivity: 0.2%
[3]; [4]
  percent cross reactivity: 0.2%
[3]; [5]
  percent cross reactivity: 0.2%
[3]; [6]
  percent cross reactivity: 0.2%

## C[C@]12CCC(=O)C=C1CC[C@@H]1[C@@H]2C(=O)C[C@@]2(C)[C@H]1CC[C@]2(O)[C@H](O)CO [20β-dihydrocortisone]
[1]
  percent cross reactivity: 0.1%
[2]
  percent cross reactivity: 0.1%
[3]; [4]
  percent cross reactivity: 0.1%
[3]; [5]
  percent cross reactivity: 0.1%
[3]; [6]
  percent cross reactivity: 0.1%

## CC(=O)[C@@]1(O)CC[C@H]2[C@@H]3CC=C4C[C@@H](O)CC[C@]4(C)[C@H]3CC[C@@]21C [17β-hydroxypregnenolone]
[1]
  percent cross reactivity: 0.1%
[2]
  percent cross reactivity: 0.1%
[3]; [4]
  percent cross reactivity: 0.1%
[3]; [5]
  percent cross reactivity: 0.1%
[3]; [6]
  percent cross reactivity: 0.1%

## C[C@H]1C[C@@H]2[C@H]([C@@H](O)C[C@@]3(C)[C@H]2CC[C@]3(O)C(=O)CO)[C@@]2(C)C=CC(=O)C=C12 [6-methyl-prednisolone]
[1]
  percent cross reactivity: 6.4%
[2]
  percent cross reactivity: 10.7%
[3]; [4]
  percent cross reactivity: 8.3%
[3]; [5]
  percent cross reactivity: 7.5%
[3]; [6]
  percent cross reactivity: 7.2%

## C[C@]12CCC(=O)C=C1CC[C@@H]1[C@@H]2[C@@H](O)C[C@@]2(C)[C@H]1CC[C@]2(O)[C@H](O)CO [20β-dihydrocortisol]
[1]
  percent cross reactivity: 0.6%
[2]
  percent cross reactivity: 2.1%
[3]; [4]
  percent cross reactivity: 1.6%
[3]; [5]
  percent cross reactivity: 1.5%
[3]; [6]
  percent cross reactivity: 1.3%

## C[C@]12CCC(=O)C=C1[C@H](O)C[C@@H]1[C@@H]2[C@@H](O)C[C@@]2(C)[C@H]1CC[C@]2(O)C(=O)CO [6β-hydroxycortisol]
[1]
  percent cross reactivity: 2.7%
[2]
  percent cross reactivity: 100.0%
[3]; [4]
  percent cross reactivity: 6.9%
[3]; [5]
  percent cross reactivity: 6.2%
[3]; [6]
  percent cross reactivity: 5.5%

## C[C@]12C=CC(=O)C=C1CC[C@@H]1[C@@H]2C(=O)C[C@@]2(C)[C@H]1CC[C@]2(O)C(=O)CO [prednisone]
[1]
  percent cross reactivity: 26.5%
[2]
  percent cross reactivity: 0.6%
[3]; [4]
  percent cross reactivity: 1.1%
[3]; [5]
  percent cross reactivity: 1.3%
[3]; [6]
  percent cross reactivity: 1.5%

## C[C@]12CCC(=O)C=C1CC[C@@H]1[C@@H]2[C@@H](O)C[C@]2(C=O)[C@@H](C(=O)CO)CC[C@@H]12 [Aldosterone]
[1]
  percent cross reactivity: 0.3%
[2]
  percent cross reactivity: 0.3%
[3]; [4]
  percent cross reactivity: 0.3%
[3]; [5]
  percent cross reactivity: 0.3%
[3]; [6]
  percent cross reactivity: 0.3%

## C[C@]12CCC(=O)C=C1CC[C@@H]1[C@@H]2C(=O)C[C@@]2(C)[C@H]1CC[C@]2(O)[C@@H](O)CO [20α-dihydrocortisone]
[1]
  percent cross reactivity: 1.5%
[2]
  percent cross reactivity: 0.2%
[3]; [4]
  percent cross reactivity: 0.4%
[3]; [5]
  percent cross reactivity: 0.5%
[3]; [6]
  percent cross reactivity: 0.5%

## C[C@]12CC[C@H]3[C@@H](CCC4=CC(=O)CC[C@@]43C)[C@@H]1CC[C@@H]2C(=O)CO [11-deoxycorticosterone]
[1]
  percent cross reactivity: 0.7%
[2]
  percent cross reactivity: 0.8%
[3]; [4]
  percent cross reactivity: 0.8%
[3]; [5]
  percent cross reactivity: 0.8%
[3]; [6]
  percent cross reactivity: 0.8%

## CC(=O)[C@@]1(O)CC[C@H]2[C@@H]3CCC4=CC(=O)CC[C@]4(C)[C@H]3C(=O)C[C@@]21C [21-deoxycortisone]
[1]
  percent cross reactivity: 36.4%
[2]
  percent cross reactivity: 1.4%
[3]; [4]
  percent cross reactivity: 2.5%
[3]; [5]
  percent cross reactivity: 2.7%
[3]; [6]
  percent cross reactivity: 3.1%

## C[C@]12C[C@H](O)[C@H]3[C@@H](CCC4=CC(=O)CC[C@@]43C)[C@@H]1CC[C@@H]2C(=O)CO [corticosterone]
[1]
  percent cross reactivity: 0.6%
[2]
  percent cross reactivity: 3.0%
[3]; [4]
  percent cross reactivity: 1.8%
[3]; [5]
  percent cross reactivity: 1.5%
[3]; [6]
  percent cross reactivity: 1.4%

## C[C@]12CC[C@@H](O)C[C@H]1CC[C@@H]1[C@@H]2[C@@H](O)C[C@@]2(C)[C@H]1CC[C@]2(O)[C@@H](O)CO [α-cortol]
[1]
  percent cross reactivity: 0.2%
[2]
  percent cross reactivity: 1.0%
[3]; [4]
  percent cross reactivity: 0.7%
[3]; [5]
  percent cross reactivity: 0.6%
[3]; [6]
  percent cross reactivity: 0.5%
